# Test results as given in paper PMC8847198, “The Influence of AA29504 on GABAA Receptor Ligand Binding Properties and Its Implications on Subtype Selectivity” (Neurochemical Research, 2021).
# Like-named read-outs stand apart in the source and are kept apart here.
# What was measured:
# [1] = test system: GABAARs in WT forebrain membranes; test: [^3H]muscimol association and dissociation, WT forebrain membranes; format: binding, mouse
# Experimental: (§1) WT and δKO forebrain membranes were prepared using the method of Squires and Saederup as modified by Uusi-Oukari et al.. Homogenized and washed membranes were suspended in 10 mM Tris–HCl, pH 7.4 and stored at -70 °C.
# (§2) The effect of AA29504 on the association and dissociation of [^3H]muscimol binding was measured essentially as described by Benkherouf et al.. Saturation analysis of [^3H]muscimol was performed essentially as described by Uusi-Oukari and Korpi. Triplicate samples of the membranes were incubated in assay buffer with a concentration series of [^3H]muscimol (1–50 nM) at room temperature (22 °C) for 60 min in the absence and presence of 10 µM AA29504. […] .
# (§3) GraphPad Prism software (GraphPad, San Diego, CA, USA) was used for nonlinear least squares curve-fitting and statistical testing of association, dissociation, saturation binding and radioligand displacement data. The association and dissociation curves were used for the estimation of association (Kon) and dissociation (Koff) rate constants. Saturation binding curves were used for the estimation of total number of high-affinity binding sites (Bmax), and equilibrium dissociation constants (KD). […] . Statistical comparisons were made with One-way ANOVA, Two-way ANOVA or Brown-Forsythe and Welch ANOVA followed by the relevant (Tukey’s or Dunnett’s) post hoc tests for multiple comparisons. […] . The study samples were not randomized and analysis was performed in a parallel unblinded mode.
# [2] = test system: GABAARs in δKO forebrain membranes; test: [^3H]muscimol association and dissociation, δKO forebrain membranes; format: binding, mouse
# Experimental: as §1, §2, §3
# [3] = biological target: GABAARs in WT mouse forebrain membranes; test: Saturation analysis of [^3H]muscimol binding, WT forebrain membranes
# Experimental: as §1, §2, §3
# [4] = biological target: GABAARs in δKO mouse forebrain membranes; test: Saturation analysis of [^3H]muscimol binding, δKO forebrain membranes; settings: one-site model
# Experimental: as §1, §2
# as §3, with “The study samples were not randomized and analysis was performed in a parallel unblinded mode.” left out
# [5] = design: method as in PMID 31736685; settings: in vivo; cited from earlier work
# [6] = biological target: T1, recombinant α6β3 GABAARs expressed in HEK293 cells (Rattus norvegicus, UniProt P30191+P63079); test: GABA-independent displacement of [^3H]EBOB binding, recombinant α6β3
# T1 construct: expressed in transfected cells; host or cells: HEK293, transient calcium phosphate transfection, pRK5 plasmids
# Experimental: (§4) Triplicate samples were incubated with shaking for 2 h. […] The incubations were terminated as described above for [^3H]muscimol binding.
# (§5) GraphPad Prism software (GraphPad, San Diego, CA, USA) was used for nonlinear least squares curve-fitting and statistical testing of association, dissociation, saturation binding and radioligand displacement data. The association and dissociation curves were used for the estimation of association (Kon) and dissociation (Koff) rate constants. Saturation binding curves were used for the estimation of total number of high-affinity binding sites (Bmax), and equilibrium dissociation constants (KD). […] Statistical comparisons were made with One-way ANOVA, Two-way ANOVA or Brown-Forsythe and Welch ANOVA followed by the relevant (Tukey’s or Dunnett’s) post hoc tests for multiple comparisons. […] The study samples were not randomized and analysis was performed in a parallel unblinded mode.
# [7] = biological target: T2, recombinant α6β3δ GABAARs expressed in HEK293 cells (Rattus norvegicus, UniProt P18506+P30191+P63079); test: GABA-independent displacement of [^3H]EBOB binding, recombinant α6β3δ
# T2 construct: expressed in transfected cells; host or cells: HEK293, transient calcium phosphate transfection, pRK5 plasmids, 1:1:1
# Experimental: as §4, §5
# [8] = biological target: T3, recombinant α6β3γ2 GABAARs expressed in HEK293 cells (Rattus norvegicus, UniProt P18508+P30191+P63079); test: GABA-independent displacement of [^3H]EBOB binding, recombinant α6β3γ2
# T3 construct: expressed in transfected cells; host or cells: HEK293, transient calcium phosphate transfection, pRK5 plasmids, 1:1:1
# Experimental: as §4, §5
# [9] = test system: native GABAARs expressed in WT mice forebrain membranes; test: AA29504 effect on [^3H]muscimol binding, WT forebrain membranes; design: species or system mouse; settings: increasing concentrations of AA29504, 15 min, 22 °C
# Experimental: as §1
# [10] = test system: native GABAARs expressed in δKO mice forebrain membranes; test: AA29504 effect on [^3H]muscimol binding, δKO forebrain membranes; design: species or system mouse; settings: increasing concentrations of AA29504, 15 min, 22 °C
# Experimental: as §1
# [11] = test system: native GABAARs expressed in WT mice forebrain membranes; test: AA29504 effect on [^3H]GABA binding, WT forebrain membranes; design: species or system mouse; settings: increasing concentrations of AA29504, 15 min, 22 °C
# Experimental: as §1
# [12] = test system: native GABAARs expressed in δKO mice forebrain membranes; test: AA29504 effect on [^3H]GABA binding, δKO forebrain membranes; design: species or system mouse; settings: increasing concentrations of AA29504, 15 min, 22 °C
# Experimental: as §1
# [13] = design: method as in PMID 20060846, PMID 22579928, PMID 20957350; settings: 60 min post 2 mg/kg, s.c. in mice; cited from earlier work
# [14] = biological target: recombinant α6β2δ GABAARs expressed in HEK293 cells (Rattus norvegicus, UniProt P18506+P30191+P63138); test: AA29504 effect on [^3H]muscimol binding, recombinant α6β2δ; settings: HEK293, 4 concentrations of AA29504
# Experimental: (§6) Human embryonic kidney (HEK) 293 cells were maintained at + 37 °C/10% CO2 in Dulbecco’s Modified Eagle’s Medium (DMEM) (Gibco, Gaithersburg, MD, USA), supplemented with 3.7 g/L NaHCO3, 10% Fetal Bovine Serum (FBS) (Gibco, Gaithersburg, MD, USA), 50,000 U/L penicillin and 50 mg/L streptomycin (Sigma-Aldrich, St Louis, MO, USA). The cells were divided and plated on 10 cm culture dishes for binding assays 24 h before transfection. HEK293 cells were transfected with rat cDNAs (α1, α6, β2, β3, γ2S, δ) in pRK5 plasmids [39] under the control of cytomegalovirus (CMV) promoter using calcium phosphate transfection method essentially as described by Lüddens and Korpi [40]. The plasmids were used in 1:1 and 1:1:1 ratios for transfections containing 2 [(α6) + (β3)] or 3 [(α1 or α6) + (β2 or β3) + (γ2S or δ)] different subunits, respectively (5 μg of each plasmid DNA for a 10 cm plate). The cells were incubated at 37 °C/10% CO2 for 24 h post-transfection. Old culture medium was replaced with fresh medium and the incubation resumed for another 24 h. The cells were harvested 48 h post-transfection. […]
# (§7) Individually pooled triplicate membrane samples (3 total binding and 3 non‐specific binding) were incubated with shaking for 15 min. The effect of AA29504 on binding was determined in the presence of various concentrations of AA29504. […]
# [15] = biological target: recombinant α1β2γ2 GABAARs expressed in HEK293 cells (Rattus norvegicus, UniProt P18508+P62813+P63138); test: AA29504 effect on [^3H]muscimol binding, recombinant α1β2γ2; settings: α1β2γ2, HEK293, 4 concentrations of AA29504
# Experimental: as §6, §7
# [16] = biological target: recombinant α6β2γ2 GABAARs expressed in HEK293 cells (Rattus norvegicus, UniProt P18508+P30191+P63138); test: AA29504 effect on [^3H]muscimol binding, recombinant α6β2γ2; settings: α6β2γ2, HEK293, 4 concentrations of AA29504
# Experimental: as §6, §7
# [17] = test system: native GABAARs expressed in WT forebrain membranes; format: binding, mouse; settings: read-out: IC50 of agonist-induced [^3H]EBOB displacement
# Experimental: as §1, §4, §5
# [18] = test system: native GABAARs expressed in δKO forebrain membranes; format: binding, mouse; settings: read-out: IC50 of agonist-induced [^3H]EBOB displacement
# Experimental: as §1, §4, §5
# [19] = 2 nM [^3H]muscimol, 22 °C, absence of AA29504
# [20] = 10 µM AA29504, 2 nM [^3H]muscimol, control binding without AA29504
# T2 sequence (P30191 20-453): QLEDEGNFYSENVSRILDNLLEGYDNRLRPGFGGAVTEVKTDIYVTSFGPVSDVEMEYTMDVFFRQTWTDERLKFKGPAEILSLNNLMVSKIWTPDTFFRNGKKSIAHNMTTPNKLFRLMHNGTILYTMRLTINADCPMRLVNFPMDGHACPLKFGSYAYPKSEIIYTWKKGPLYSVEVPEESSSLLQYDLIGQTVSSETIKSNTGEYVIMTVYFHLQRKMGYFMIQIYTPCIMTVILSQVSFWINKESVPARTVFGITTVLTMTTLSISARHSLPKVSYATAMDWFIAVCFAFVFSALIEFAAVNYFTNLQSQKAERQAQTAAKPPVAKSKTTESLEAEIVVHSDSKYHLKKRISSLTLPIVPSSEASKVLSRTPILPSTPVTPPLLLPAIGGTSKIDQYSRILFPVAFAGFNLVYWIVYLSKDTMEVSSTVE
# T2 sequence (P63079 26-473): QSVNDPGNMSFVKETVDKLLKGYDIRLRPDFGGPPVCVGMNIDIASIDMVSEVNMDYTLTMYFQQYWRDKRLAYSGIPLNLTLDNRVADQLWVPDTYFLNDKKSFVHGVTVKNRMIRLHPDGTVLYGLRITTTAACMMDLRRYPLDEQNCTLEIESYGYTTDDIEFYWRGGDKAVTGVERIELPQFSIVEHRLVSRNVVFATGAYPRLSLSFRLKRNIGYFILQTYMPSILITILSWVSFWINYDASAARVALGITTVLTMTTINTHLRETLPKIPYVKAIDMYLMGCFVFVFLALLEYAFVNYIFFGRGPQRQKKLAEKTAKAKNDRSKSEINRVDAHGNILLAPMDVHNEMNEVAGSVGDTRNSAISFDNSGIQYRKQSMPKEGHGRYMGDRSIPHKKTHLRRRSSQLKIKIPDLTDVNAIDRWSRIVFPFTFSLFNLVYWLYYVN
# T2 sequence (P18506 17-449 limits assumed): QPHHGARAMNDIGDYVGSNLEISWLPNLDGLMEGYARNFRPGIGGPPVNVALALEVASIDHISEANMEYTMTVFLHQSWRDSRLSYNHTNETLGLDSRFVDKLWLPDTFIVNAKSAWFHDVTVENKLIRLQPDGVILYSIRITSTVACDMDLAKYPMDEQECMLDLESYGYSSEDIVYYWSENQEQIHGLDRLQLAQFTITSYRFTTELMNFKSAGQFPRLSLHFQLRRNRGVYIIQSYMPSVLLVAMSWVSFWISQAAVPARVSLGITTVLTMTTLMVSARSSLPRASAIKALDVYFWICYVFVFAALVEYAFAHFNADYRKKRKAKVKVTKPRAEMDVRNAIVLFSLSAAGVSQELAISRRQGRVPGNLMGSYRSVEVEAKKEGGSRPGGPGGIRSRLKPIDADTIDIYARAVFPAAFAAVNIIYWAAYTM
# T3 sequence (P30191 20-453): as the sequence (P30191 20-453) above
# T3 sequence (P63079 26-473): as the sequence (P63079 26-473) above
# T3 sequence (P18508 39-466): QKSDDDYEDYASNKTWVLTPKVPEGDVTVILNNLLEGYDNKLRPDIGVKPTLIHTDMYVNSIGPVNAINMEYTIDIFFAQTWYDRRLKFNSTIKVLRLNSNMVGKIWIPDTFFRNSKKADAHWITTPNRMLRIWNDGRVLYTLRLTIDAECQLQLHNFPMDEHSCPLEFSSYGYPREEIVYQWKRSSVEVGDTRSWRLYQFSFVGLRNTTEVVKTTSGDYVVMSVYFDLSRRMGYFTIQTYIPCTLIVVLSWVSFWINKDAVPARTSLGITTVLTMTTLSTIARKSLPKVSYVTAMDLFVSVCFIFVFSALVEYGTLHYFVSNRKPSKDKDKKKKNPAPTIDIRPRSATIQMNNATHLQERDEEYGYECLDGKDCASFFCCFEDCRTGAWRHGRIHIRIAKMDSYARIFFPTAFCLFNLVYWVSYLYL
# T1 sequence (P30191 20-453): as the sequence (P30191 20-453) above
# T1 sequence (P63079 26-473): as the sequence (P63079 26-473) above
# Chain of recombinant α6β2δ GABAARs expressed in HEK293 cells (P30191 20-453): as the sequence (P30191 20-453) above
# Chain of recombinant α6β2δ GABAARs expressed in HEK293 cells (P63138 25-474 limits assumed): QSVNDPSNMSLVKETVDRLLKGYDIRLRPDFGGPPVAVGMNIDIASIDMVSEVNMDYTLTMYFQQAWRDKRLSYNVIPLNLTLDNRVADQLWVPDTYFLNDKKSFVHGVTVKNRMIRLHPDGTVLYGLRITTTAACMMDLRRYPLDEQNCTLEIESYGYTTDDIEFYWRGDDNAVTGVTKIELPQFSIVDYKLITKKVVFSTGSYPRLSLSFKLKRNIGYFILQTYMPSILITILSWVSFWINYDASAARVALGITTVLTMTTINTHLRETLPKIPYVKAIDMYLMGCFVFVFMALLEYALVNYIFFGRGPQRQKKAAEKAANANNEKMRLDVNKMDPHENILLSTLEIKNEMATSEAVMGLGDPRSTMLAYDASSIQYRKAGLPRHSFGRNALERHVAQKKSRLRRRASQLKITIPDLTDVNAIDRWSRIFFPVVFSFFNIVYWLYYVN
# Chain of recombinant α6β2δ GABAARs expressed in HEK293 cells (P18506 17-449 limits assumed): as the sequence (P18506 17-449 limits assumed) above
# Chain of recombinant α6β2γ2 GABAARs expressed in HEK293 cells (P30191 20-453): as the sequence (P30191 20-453) above
# Chain of recombinant α6β2γ2 GABAARs expressed in HEK293 cells (P63138 25-474 limits assumed): as the sequence (P63138 25-474 limits assumed) above
# Chain of recombinant α6β2γ2 GABAARs expressed in HEK293 cells (P18508 39-466): as the sequence (P18508 39-466) above
# Chain of recombinant α1β2γ2 GABAARs expressed in HEK293 cells (P62813 28-455): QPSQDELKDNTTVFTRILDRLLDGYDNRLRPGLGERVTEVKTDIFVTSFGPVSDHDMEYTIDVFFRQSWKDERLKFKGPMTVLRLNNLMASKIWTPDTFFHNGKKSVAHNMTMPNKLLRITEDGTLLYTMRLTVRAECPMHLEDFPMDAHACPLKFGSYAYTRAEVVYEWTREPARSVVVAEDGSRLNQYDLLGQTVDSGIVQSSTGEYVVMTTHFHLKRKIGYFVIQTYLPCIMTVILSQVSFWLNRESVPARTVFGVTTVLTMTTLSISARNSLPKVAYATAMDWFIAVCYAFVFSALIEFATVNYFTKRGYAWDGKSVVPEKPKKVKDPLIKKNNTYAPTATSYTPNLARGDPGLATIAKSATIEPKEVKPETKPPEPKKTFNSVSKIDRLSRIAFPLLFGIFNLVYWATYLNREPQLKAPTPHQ
# Chain of recombinant α1β2γ2 GABAARs expressed in HEK293 cells (P63138 25-474): as the sequence (P63138 25-474 limits assumed) above
# Chain of recombinant α1β2γ2 GABAARs expressed in HEK293 cells (P18508 39-466): as the sequence (P18508 39-466) above
structure (smiles),measurement,setting,value
[3H]C([3H])(N)c1cc(=O)[nH]o1 [[^3H]muscimol],association rate constant Kon,[1]; [19],2.2 ± 0.3 × 10^8 M^−1 × min^−1
same,dissociation rate constant Koff,[1]; [19],0.00633 ± 0.00033 s⁻¹
same,association rate constant Kon,[2]; [19],5.9 ± 0.6 × 10^8 M^−1 × min^−1
same,dissociation rate constant Koff,[2]; [19],0.011 ± 0.0005 s⁻¹
same,Kd,"[3]; with AA29504 (10 µM), 22 °C, one-site model, read-out: KD",23 ± 4 nM
same,Kd,"[3]; without AA29504, 22 °C, read-out: KD, site (1) of two-site model",4.1 ± 3.6 nM
same,Kd,"[3]; without AA29504, 22 °C, read-out: KD, site (2) of two-site model (converted)",40 nM
same,Kd,"[4]; with AA29504 (10 µM), 22 °C",30 ± 3 nM
same,Kd,"[4]; without AA29504, 22 °C",53 ± 6 nM
"O=C(Nc1c(-c2cccs2)nc2ccccn12)c1ccc(Cl)cc1 [DS2, 4-chloro-N-[2-(2-thienyl)imidazo[1,2-a]pyridin-3-yl]benzamide]",brain bioavailability,[5],limited brain bioavailability
"CCOC(=O)Nc1ccc(NCc2c(C)cc(C)cc2C)cc1N [AA29504, [2-amino-4-(2,4,6-trimethylbenzylamino)-phenyl]-carbamic acid ethyl ester]",concentration at which GABA-independent radioligand displacement was evident,"[6]; α6β3, 1 nM [^3H]EBOB",≥ 100 nM
same,IC50,"[6]; α6β3, HEK293, 1 nM [^3H]EBOB, no GABA",400 ± 20 nM
same,concentration at which GABA-independent radioligand displacement was evident,[7]; 1 nM [^3H]EBOB,≥ 100 nM
same,IC50,"[7]; HEK293, 1 nM [^3H]EBOB, no GABA",1100 ± 200 nM
same,concentration at which GABA-independent radioligand displacement was evident,"[8]; α6β3γ2, 1 nM [^3H]EBOB",≥ 300 nM
same,IC50,"[8]; α6β3γ2, HEK293, 1 nM [^3H]EBOB, no GABA",11100 ± 1400 nM
same,effect on 2 nM [^3H]muscimol binding,[9],concentration-dependent stimulation
same,effect on 2 nM [^3H]muscimol binding,[10],concentration-dependent stimulation
same,effect on 5 nM [^3H]GABA binding,[11],concentration-dependent stimulation
same,effect on 5 nM [^3H]GABA binding,[12],concentration-dependent stimulation
same,maximal increased specific [^3H]muscimol binding,[1]; [20],166 ± 5 % of control
same,maximal increased specific [^3H]muscimol binding,[2]; [20],240 ± 23 % of control binding
same,brain concentration,[13],1000 nM
same,effect on 2 nM [^3H]muscimol binding,[14],no significant effect
same,effect on 2 nM [^3H]muscimol binding,[15],stimulated
same,effect on 2 nM [^3H]muscimol binding,[16],stimulated
"Oc1noc2c1CCNC2 [THIP, 4,5,6,7-tetrahydroisoxazolo[5,4-c]pyridin-3-ol]",IC50,[17],200000 ± 110000 nM
same,IC50,[18],220000 ± 50000 nM
